Measured values reported in the CheMixHub viscosity set.

Assay: xn = mol fraction of the nth substance listed

CN(C)CCCN + O
viscosity [mPa·s]
Conditions | 293.15 K | 303.15 K | 308.15 K | 313.15 K | 318.15 K | 323.15 K
100 kPa, x1 = 0.1 | 8.105 | 5.084 | – | 3.421 | – | 2.362
100 kPa, x1 = 0.1998 | 13.62 | 8.093 | – | 5.329 | – | 3.605
100 kPa, x1 = 0.2998 | 11.49 | 7.049 | – | 4.586 | – | 3.142
100 kPa, x1 = 0.4004 | 7.437 | 4.84 | – | 3.296 | – | 2.359
100 kPa, x1 = 0.5003 | 4.661 | 3.222 | – | 2.339 | – | 1.759
100 kPa, x1 = 0.5989 | 3.168 | 2.25 | – | 1.781 | – | 1.363
100 kPa, x1 = 0.6992 | 2.225 | 1.7 | – | 1.333 | – | 1.076
100 kPa, x1 = 0.8005 | 1.691 | 1.294 | – | 1.046 | – | 0.8667
100 kPa, x1 = 0.8999 | 1.327 | 1.07 | – | 0.8872 | – | 0.75
101 kPa, x1 = 0.0488 | – | 2.376 | – | – | – | –
101 kPa, x1 = 0.0996 | – | 4.856 | 3.946 | 3.263 | 2.739 | 2.323
101 kPa, x1 = 0.0999 | – | 5.01 | – | – | – | –
101 kPa, x1 = 0.147 | – | 7.175 | – | – | – | –
101 kPa, x1 = 0.1504 | – | 7.078 | 5.637 | 4.578 | 3.791 | 3.16
101 kPa, x1 = 0.1743 | – | 7.96 | – | – | – | –
101 kPa, x1 = 0.1994 | – | 8.356 | 6.623 | 5.341 | 4.372 | 3.624
101 kPa, x1 = 0.1999 | – | 8.348 | – | – | – | –
101 kPa, x1 = 0.2247 | – | 8.378 | – | – | – | –
101 kPa, x1 = 0.2497 | – | 8.194 | – | – | – | –
101 kPa, x1 = 0.2521 | – | 8.394 | 6.631 | 5.351 | 4.383 | 3.636
101 kPa, x1 = 0.2744 | – | 7.787 | – | – | – | –
101 kPa, x1 = 0.2995 | – | 7.688 | 6.133 | 4.967 | 4.089 | 3.402
101 kPa, x1 = 0.2998 | – | 7.275 | – | – | – | –
101 kPa, x1 = 0.3809 | – | 6.001 | 4.861 | 4.005 | 3.354 | 2.831
101 kPa, x1 = 0.5 | – | 3.919 | 3.282 | 2.77 | 2.372 | 2.049
101 kPa, x1 = 0.5994 | – | 2.525 | 2.116 | 1.884 | 1.65 | 1.461
101 kPa, x1 = 0.6826 | – | 1.939 | 1.701 | 1.502 | 1.339 | 1.201
101 kPa, x1 = 0.7798 | – | 1.492 | 1.329 | 1.191 | 1.077 | 0.9811
101 kPa, x1 = 0.8918 | – | 1.163 | 1.042 | 0.9578 | 0.8777 | 0.8099
